We go through six compounds from US4640922A, “3N-substituted 3,4-dihydropyrimidines as agents for treating disorders of cardiovascular system” (Suntory Limited, priority 1984, dated 1987).

Where two headings read alike, the source gives them in different places.

Assay [1] concerns coronary artery (isolated heart). Description: Coronary vascular dilative effect, isolated perfused guinea pig heart, Langendorff's method (perfusion pressure). The settings on record: for Pharmacological data ED50: 0.1 ml injected into coronary artery, isolated guinea pig heart, 37° C., 6 ml/minute. As to the method: The coronary vascular dilative effect of 3N-substituted 3,4-dihydropryrimidine derivatives was tested.
Heartly guinea pigs (weight 400-500 g) were clubbed dead and their hearts were immediately isolated. The hearts were perfused with Krebs-Henseleit solution bubbled with a mixture of 95% O2 +5% CO2 and maintained at 37° C. at a certain rate of 6 ml/minute according to Langendorff's method [J. Pharmacol. Methods 2, 143 (1979)]. The perfusion pressure was determined by a pressure transducer. Samples were prepared by dissolving 1 mg of a test compound in 1 ml of a mixture of dimethylsulfoxide and physiological saline (1:9) and diluting with physiological saline the solution to the predetermined concentration. 0.1 ml of the diluted solution was administered into the coronary artery via a rubber tube connected to an aorta cannula to obtain ED50 (μg/heart) data as shown in Table 1. The numbers of the compounds in the Table correspond respectively to those of the working examples described above.

Assay [2] concerns vertebral artery. Nature of the assay: Blood flow and blood vessel resistance of vertebral artery in anesthetized dogs. The format is in vivo, dog. As to conditions: Canis lupus familiaris, iv, % of value before administration, average ± standard error. As to the method:
(§1) The pharmacological effects of the compounds of the present invention with respect to the blood flow and blood vessel resistance of vertebral artery and systemic blood pressure (average pressure) in anesthetized dogs. […] The first and second ribs were cut open to expose the left vertebral artery. A probe was attached to the origin of the artery and the blood flow was measured with an electromagnetic rheometer (Model MF-27, product of Nihon Koden K.K.) At the same time, continuous measurement of the following parameters was made: systemic blood pressure (average pressure) at the right femoral artery, the ECG in the second induction period, the heart beat with a tachometer driven by the R wave, and the blood vessel resistance determined by loading a multiplication/division unit (EO-601 G, product of Nihon Koden K.K.) with the average values of blood pressure and blood flow in the vertebral artery. All of these parameters were recorded simultaneously on a polygraph (RM-600, product of Nihon Koden, K.K.) All of the test compounds were injected through a cannula inserted into the femoral […].

The test system of assay [3] is systemic blood pressure. Description: Systemic blood pressure (average pressure) in anesthetized dogs. As to conditions: Canis lupus familiaris, iv, % of value before administration, average ± standard error, read-out: Average blood pressure, percentage compared with control. It is filed as in vivo, dog. As to the method: as §1
The mark [4] stands for this setting: read-out: Vertebral artery blood flow, percentage compared with control.
[5] abbreviates: read-out: Vertebral artery vessel resistance, percentage compared with control.

Turning to `COC(=O)C1=C(C)N=C(C)N(C(=O)OC)C1c1cccc([N+](=O)[O-])c1` (stereo not shown) [Compound 17], the “Pharmacological data ED50” value in assay [1] turned out to be 2.5 μg/heart. Besides, in assay [2] (setting [4]), the response vs control in vivo at 0.001 mg/kg was 100%, the response vs control in vivo at 0.003 mg/kg was 106%, the response vs control in vivo at 0.01 mg/kg was determined as 108% and the response vs control in vivo at 0.03 mg/kg came to 129%. Also, in assay [2] (setting [4]), the response vs control in vivo at 0.1 mg/kg was found to be 148%. In addition, in assay [2] (setting [5]), the response vs control in vivo at 0.001 mg/kg is 97%, the response vs control in vivo at 0.003 mg/kg was found to be 95%, the response vs control in vivo at 0.01 mg/kg was determined as 89% and the response vs control in vivo at 0.03 mg/kg was determined as 77%. Further, in assay [2] (setting [5]), the response vs control in vivo at 0.1 mg/kg is 67%. In assay [3], the response vs control in vivo at 0.001 mg/kg came to 95%, the response vs control in vivo at 0.003 mg/kg came out at 90%, the response vs control in vivo at 0.01 mg/kg stood at 89% and the response vs control in vivo at 0.03 mg/kg turned out to be 86%. Moreover, the response vs control in vivo at 0.1 mg/kg in assay [3] is 74%.

Regarding `CCOC(=O)C1=C(C)N=C(C)N(C(=O)OCC)C1c1ccccc1[N+](=O)[O-]` (stereo not shown) [Compound 1, 2,6-Dimethyl-5-ethoxycarbonyl-3-N-ethoxycarbonyl-4-(2'-nitrophenyl)-3,4-dihydropyrimidine], the “Pharmacological data ED50” value in assay [1] was 0.055 μg/heart. Moreover, in assay [1] (Langendorff's method, guinea pig heart), the “coronary vascular dilative effects (in words)” value is recorded as “extremely strong coronary vascular dilative effects”. In addition, in assay [2] (setting [4]), the response vs control in vivo at 0.0003 mg/kg was found to be 107 ± 4%, the response vs control in vivo at 0.001 mg/kg was determined as 115 ± 9%, the response vs control in vivo at 0.003 mg/kg was 136 ± 6% and the response vs control in vivo at 0.01 mg/kg was 172 ± 20%. In addition, in assay [2] (setting [4]), the response vs control in vivo at 0.03 mg/kg worked out at 184 ± 26% and the response vs control in vivo at 0.1 mg/kg came out at 234%. Further, in assay [2] (setting [5]), the response vs control in vivo at 0.0003 mg/kg turned out to be 93 ± 5%, the response vs control in vivo at 0.001 mg/kg is 89 ± 4%, the response vs control in vivo at 0.003 mg/kg was determined as 72 ± 5% and the response vs control in vivo at 0.01 mg/kg turned out to be 55 ± 3%. In assay [2] (setting [5]), the response vs control in vivo at 0.03 mg/kg stood at 50 ± 6% and the response vs control in vivo at 0.1 mg/kg turned out to be 41%. Besides, the response vs control in vivo at 0.0003 mg/kg in assay [3] (0.0003 mg/kg) is 94 ± 3%. In addition, in assay [3], the response vs control in vivo at 0.001 mg/kg worked out at 90 ± 1%, the response vs control in vivo at 0.003 mg/kg amounted to 88 ± 1%, the response vs control in vivo at 0.01 mg/kg came out at 79 ± 3% and the response vs control in vivo at 0.03 mg/kg worked out at 74 ± 4%. In addition, in assay [3], the response vs control in vivo at 0.1 mg/kg stood at 75%.

With `COC(=O)C1=C(C)N=C(C)N(C(=O)OC)C1c1ccccc1[N+](=O)[O-]` (stereo not shown) [Compound 10], the “Pharmacological data ED50” value in assay [1] turned out to be 0.75 μg/heart. In assay [2] (setting [4]), the response vs control in vivo at 0.001 mg/kg was found to be 102%, the response vs control in vivo at 0.003 mg/kg worked out at 108%, the response vs control in vivo at 0.01 mg/kg worked out at 113% and the response vs control in vivo at 0.03 mg/kg amounted to 140%. Besides, the response vs control in vivo at 0.1 mg/kg in assay [2] (setting [4]) was found to be 146%. Besides, in assay [2] (setting [5]), the response vs control in vivo at 0.001 mg/kg was determined as 99%, the response vs control in vivo at 0.003 mg/kg turned out to be 94%, the response vs control in vivo at 0.01 mg/kg was 86% and the response vs control in vivo at 0.03 mg/kg is 67%. Moreover, the response vs control in vivo at 0.1 mg/kg in assay [2] (setting [5]) was determined as 58%. In assay [3], the response vs control in vivo at 0.001 mg/kg is 92%, the response vs control in vivo at 0.003 mg/kg was determined as 91%, the response vs control in vivo at 0.01 mg/kg worked out at 86% and the response vs control in vivo at 0.03 mg/kg is 78%. Besides, the response vs control in vivo at 0.1 mg/kg in assay [3] stood at 63%.

Regarding `CCOC(=O)C1=C(C)N=C(C)N(C(=O)OCC)C1c1cccc([N+](=O)[O-])c1` (stereo not shown) [Compound 12], in assay [1], the “Pharmacological data ED50” value came to 1.9 μg/heart. Also, in assay [2] (setting [4]), the response vs control in vivo at 0.003 mg/kg amounted to 129 ± 11%, the response vs control in vivo at 0.01 mg/kg amounted to 148 ± 3%, the response vs control in vivo at 0.03 mg/kg is 163 ± 7% and the response vs control in vivo at 0.1 mg/kg is 200 ± 6%. Also, in assay [2] (setting [5]), the response vs control in vivo at 0.003 mg/kg is 86 ± 2%, the response vs control in vivo at 0.01 mg/kg stood at 73 ± 3%, the response vs control in vivo at 0.03 mg/kg was determined as 62 ± 4% and the response vs control in vivo at 0.1 mg/kg came to 47 ± 5%. In addition, in assay [3], the response vs control in vivo at 0.003 mg/kg came out at 93 ± 0.3%, the response vs control in vivo at 0.01 mg/kg is 86 ± 1%, the response vs control in vivo at 0.03 mg/kg amounted to 84 ± 3% and the response vs control in vivo at 0.1 mg/kg was found to be 77 ± 2%.

With `CCOC(=O)C1=C(Cl)N=C(C)N(C(=O)OCC)C1c1ccccc1[N+](=O)[O-]` (stereo not shown) [Compound 4], the “Pharmacological data ED50” value in assay [1] is reported as 0.25 μg/heart. In assay [2] (setting [4]), the response vs control in vivo at 0.001 mg/kg is 107 ± 4%, the response vs control in vivo at 0.003 mg/kg came out at 113 ± 6%, the response vs control in vivo at 0.01 mg/kg came to 143 ± 12% and the response vs control in vivo at 0.03 mg/kg worked out at 147 ± 16%. For the same compound, the response vs control in vivo at 0.1 mg/kg in assay [2] (setting [4]) worked out at 182 ± 16%. Further, in assay [2] (setting [5]), the response vs control in vivo at 0.001 mg/kg is 91 ± 5%, the response vs control in vivo at 0.003 mg/kg came to 86 ± 7%, the response vs control in vivo at 0.01 mg/kg is 66 ± 4% and the response vs control in vivo at 0.03 mg/kg turned out to be 61 ± 5%. Moreover, in assay [2] (setting [5]), the response vs control in vivo at 0.1 mg/kg worked out at 51 ± 3%. In addition, in assay [3], the response vs control in vivo at 0.001 mg/kg was 95 ± 1%, the response vs control in vivo at 0.003 mg/kg amounted to 93 ± 1%, the response vs control in vivo at 0.01 mg/kg amounted to 91 ± 2% and the response vs control in vivo at 0.03 mg/kg was 88 ± 1%. Further, the response vs control in vivo at 0.1 mg/kg in assay [3] turned out to be 84 ± 2%.

In the case of `CCOC(=O)C1=C(Cl)N=C(C)N(C(=O)OCC)C1c1cccc([N+](=O)[O-])c1` (stereo not shown) [Compound 13], the “Pharmacological data ED50” value in assay [1] was 0.48 μg/heart. Besides, in assay [2] (setting [4]), the response vs control in vivo at 0.003 mg/kg was 108%, the response vs control in vivo at 0.01 mg/kg turned out to be 126%, the response vs control in vivo at 0.03 mg/kg was determined as 128% and the response vs control in vivo at 0.1 mg/kg was found to be 158%. In addition, in assay [2] (setting [4]), the response vs control in vivo at 0.3 mg/kg came out at 179% and the response vs control in vivo at 1 mg/kg was determined as 216%. In assay [2] (setting [5]), the response vs control in vivo at 0.003 mg/kg worked out at 89%, the response vs control in vivo at 0.01 mg/kg is 81%, the response vs control in vivo at 0.03 mg/kg amounted to 73% and the response vs control in vivo at 0.1 mg/kg was 54%. In addition, in assay [2] (setting [5]), the response vs control in vivo at 0.3 mg/kg was 46% and the response vs control in vivo at 1 mg/kg came out at 41%. Also, in assay [3], the response vs control in vivo at 0.003 mg/kg came out at 94%, the response vs control in vivo at 0.01 mg/kg was 92%, the response vs control in vivo at 0.03 mg/kg was found to be 88% and the response vs control in vivo at 0.1 mg/kg turned out to be 78%. In addition, in assay [3] (0.3 mg/kg), the response vs control in vivo at 0.3 mg/kg was 78%. Further, the response vs control in vivo at 1 mg/kg in assay [3] (1.0 mg/kg) was 77%.
